Assay [1] deals with antibodies in sera from SARS patients (sera 1a, 1b, 2, 6, 37, 62, London, SARS-yellow, SARS-green). It counts as binding, human. Also on record: Binding of serum 6 to linear peptides of protein X1 of SARS-CoV Urbani / Binding of serum 37 to linear peptides of protein X1 of SARS-CoV Urbani / Binding of serum 6 to looped/cyclic peptide (PEPSCAN-ELISA) / Binding of serum 37 to looped/cyclic peptide (PEPSCAN-ELISA) / Binding of serum 37 to looped/cyclic peptides of protein X1 of SARS-CoV Urbani / Binding of serum 6 to linear peptides of protein X2 / Binding of serum 37 to linear peptides of protein X2 / Binding of serum 37 to looped/cyclic peptides of protein X2 of SARS-CoV Urbani / Binding of serum 6 to linear peptides of protein M of SARS-CoV Urbani / Binding of serum 37 to linear peptides of protein M of SARS-CoV Urbani / Binding of serum 6 to looped/cyclic peptides of protein M of SARS-CoV Urbani / Binding of serum 37 to looped/cyclic peptides of protein M of SARS-CoV Urbani / Binding of serum 6 to linear peptides of protein X3 of SARS-CoV Urbani / Binding of serum 37 to linear peptides of protein X3 of SARS-CoV Urbani / Binding of serum 37 to looped/cyclic peptides of protein X3 of SARS-CoV Urbani / Binding of serum 6 to linear peptides of protein X4 of SARS-CoV Urbani / Binding of serum 37 to linear peptides of protein X4 of SARS-CoV Urbani / Binding of serum 37 to looped/cyclic peptides of protein X4 of SARS-CoV Urbani / Binding of serum 6 to linear peptides of protein X5 of SARS-CoV Urbani / Binding of serum 37 to linear peptides of protein X5 of SARS-CoV Urbani / Binding of serum 37 to looped/cyclic peptides of protein X5 of SARS-CoV Urbani / Binding of serum 6 to linear peptides of protein N of SARS-CoV Urbani / Binding of serum 37 to linear peptides of protein N of SARS-CoV Urbani / Binding of serum 6 to linear peptide (PEPSCAN-ELISA) / Binding of serum 1a to looped/cyclic peptides of protein N of SARS-CoV Urbani / Binding of serum 1b to looped/cyclic peptides of protein N of SARS-CoV Urbani / Binding of serum 2 to looped/cyclic peptides of protein N of SARS-CoV Urbani / Binding of serum 6 to looped/cyclic peptides of protein N of SARS-CoV Urbani / Binding of serum 37 to looped/cyclic peptides of protein N of SARS-CoV Urbani / Binding of serum 62 to looped/cyclic peptides of protein N of SARS-CoV Urbani / Binding of serum London to looped/cyclic peptides of protein N of SARS-CoV Urbani / Binding of serum SARS-green to looped/cyclic peptides of protein N of SARS-CoV Urbani: unit not given here.

Assay [2] concerns control sera (pooled serum of ten healthy LUMC hospital workers; commercial negative donor pooled serum from the Dutch bloodbank). The class given is binding, human. Also on record: Binding of Control serum LUMC to linear peptides / Binding of Control serum Blood-bank to linear peptides / Binding of Control serum LUMC to looped peptides / Binding of Control Serum Blood-Bank to Looped peptides / Binding of Control serum LUMC to linear peptides of the protein M of SARS-CoV Urbani / Binding of Control serum Blood-bank to linear peptides of the protein M of SARS-CoV Urbani / Binding of Control serum LUMC to looped peptides of the protein M of SARS-CoV Urbani / Binding of Control Serum Blood-Bank to Looped peptides of the protein M of SARS-CoV Urbani: unit not given here.

The test system of assay [3] is rabbit serum obtained by immunizing a rabbit with the SARS-CoV strain Frankfurt 1. The class given is binding. On the set-up: Binding of a rabbit serum to linear peptides / Binding of a rabbit serum to looped peptides / Rabbit serum linear peptides / Rabbit serum looped peptides / Binding of a rabbit serum to linear peptides of protein N of SARS-CoV Urbani (Rabbit serum linear peptides) / Binding of a rabbit serum to looped/cyclic peptides of protein N of SARS-CoV Urbani (Rabbit serum looped peptides): unit not given here.

The values below come from patent US20070128217A1 (priority 2003, published 2007).

In the case of ACADGTRHTYQLRAR, in assay [1], the “Binding of serum 1a to linear peptides of protein X4 of SARS-CoV Urbani” value amounted to 0.7, the “Binding of serum 1a to looped/cyclic peptides of protein X4 of SARS-CoV Urbani” value came out at 0.7, the “Binding of serum 1b to linear peptides of protein X4 of SARS-CoV Urbani” value amounted to 0.6 and the “Binding of serum 1b to looped/cyclic peptides of protein X4 of SARS-CoV Urbani” value is on record as 0.3. In assay [1], the “Binding of serum 2 to linear peptides of protein X4 of SARS-CoV Urbani” value was determined as 0.5, the “Binding of serum 2 to looped/cyclic peptides of protein X4 of SARS-CoV Urbani” value was 0.6, the “Binding of serum 6 to linear peptides of protein X4 of SARS-CoV Urbani” value amounted to 0.6 and the “Binding of serum 6 to looped/cyclic peptides of protein X4 of SARS-CoV Urbani” value was found to be 0.6. Also, in assay [1], the “Binding of serum 37 to linear peptides of protein X4 of SARS-CoV Urbani” value turned out to be 0.7, the “Binding of serum 37 to looped/cyclic peptides of protein X4 of SARS-CoV Urbani” value was determined as 0.7, the “Binding of serum 62 to linear peptides of protein X4 of SARS-CoV Urbani” value is 0.8 and the “Binding of serum 62 to looped/cyclic peptides of protein X4 of SARS-CoV Urbani” value is 0.6. Further, in assay [1], the “Binding of serum London to linear peptides of protein X4 of SARS-CoV Urbani” value turned out to be 0.7, the “Binding of serum London to looped/cyclic peptides of protein X4 of SARS-CoV Urbani” value is given as 0.3, the “Binding of serum SARS-green to linear peptides of protein X4 of SARS-CoV Urbani” value was found to be 0.7 and the “Binding of serum SARS-green to looped/cyclic peptides of protein X4 of SARS-CoV Urbani” value is 0.5. In assay [1], the “Binding of serum SARS-yellow to linear peptides of protein X4 of SARS-CoV Urbani” value is reported as 0.5 and the “Binding of serum SARS-yellow to looped/cyclic peptides of protein X4 of SARS-CoV Urbani” value is recorded as 0.5. Also, in assay [2], the “Binding of Control Serum Blood-Bank to Looped peptides” value amounted to 0.5, the “Binding of Control serum Blood-bank to linear peptides” value is on record as 0.6, the “Binding of Control serum LUMC to linear peptides” value is 0.6 and the “Binding of Control serum LUMC to looped peptides” value is 0.5. Moreover, the “Recognition of the peptide by the rabbit serum” value in assay [3] is given as “recognized”.
With ACFVLAAVYRINWVT, in assay [1], the “Binding of serum 1a to linear peptides of protein M of SARS-CoV Urbani” value is 0.7, the “Binding of serum 1a to looped/cyclic peptides of protein M of SARS-CoV Urbani” value is recorded as 0.7, the “Binding of serum 1b to linear peptides of protein M of SARS-CoV Urbani” value amounted to 0.6 and the “Binding of serum 1b to looped/cyclic peptides of protein M of SARS-CoV Urbani” value stood at 0.7. In assay [1], the “Binding of serum 2 to linear peptides of protein M of SARS-CoV Urbani” value came out at 0.5, the “Binding of serum 2 to looped/cyclic peptides of protein M of SARS-CoV Urbani” value was determined as 0.5, the “Binding of serum 6 to linear peptides of protein M of SARS-CoV Urbani” value amounted to 0.3 and the “Binding of serum 6 to looped/cyclic peptides of protein M of SARS-CoV Urbani” value is on record as 1.0. Also, in assay [1], the “Binding of serum 37 to linear peptides of protein M of SARS-CoV Urbani” value is 0.8, the “Binding of serum 37 to looped/cyclic peptides of protein M of SARS-CoV Urbani” value came to 0.7, the “Binding of serum 62 to linear peptides of protein M of SARS-CoV Urbani” value stood at 0.9 and the “Binding of serum 62 to looped/cyclic peptides of protein M of SARS-CoV Urbani” value is 0.6. For the same sequence, in assay [1], the “Binding of serum London to linear peptides of protein M of SARS-CoV Urbani” value is recorded as 0.3, the “Binding of serum London to looped/cyclic peptides of protein M of SARS-CoV Urbani” value came to 0.3, the “Binding of serum SARS-green to linear peptides of protein M of SARS-CoV Urbani” value is 0.3 and the “Binding of serum SARS-green to looped/cyclic peptides of protein M of SARS-CoV Urbani” value is reported as 0.3. In assay [1], the “Binding of serum SARS-yellow to linear peptides of protein M of SARS-CoV Urbani” value stood at 0.0 and the “Binding of serum SARS-yellow to looped/cyclic peptides of protein M of SARS-CoV Urbani” value came to 0.5. In assay [2], the “Binding of Control Serum Blood-Bank to Looped peptides of the protein M of SARS-CoV Urbani” value is on record as 0.7, the “Binding of Control serum Blood-bank to linear peptides of the protein M of SARS-CoV Urbani” value stood at 0.7, the “Binding of Control serum LUMC to linear peptides of the protein M of SARS-CoV Urbani” value was 0.3 and the “Binding of Control serum LUMC to looped peptides of the protein M of SARS-CoV Urbani” value amounted to 0.7. Further, in assay [3], the “Rabbit serum linear peptides” value is listed as 0.4 and the “Rabbit serum looped peptides” value came out at 0.3.
Regarding ACLCKHKKVSTNLCT, in assay [1], the “Binding of serum 1a to looped/cyclic peptides of protein X2 of SARS-CoV Urbani” value was determined as 0.3, the “Binding of serum 1b to looped/cyclic peptides of protein X2 of SARS-CoV Urbani” value is 0.3, the “Binding of serum 2 to looped/cyclic peptides of protein X2 of SARS-CoV Urbani” value is recorded as 0.2 and the “Binding of serum 6 to looped/cyclic peptides of protein X2 of SARS-CoV Urbani” value is recorded as 0.2. Further, in assay [1], the “Binding of serum 37 to looped/cyclic peptides of protein X2 of SARS-CoV Urbani” value was 0.3, the “Binding of serum 62 to looped/cyclic peptides of protein X2 of SARS-CoV Urbani” value is on record as 0.4, the “Binding of serum London to looped/cyclic peptides of protein X2 of SARS-CoV Urbani” value was determined as 0.2 and the “Binding of serum SARS-green to looped/cyclic peptides of protein X2 of SARS-CoV Urbani” value is reported as 0.3. Further, in assay [1], the “Binding of serum SARS-yellow to looped/cyclic peptides of protein X2 of SARS-CoV Urbani” value is on record as 0.3; the “Recognition of the peptide by sera of SARS-CoV infected individuals, and form (linear, looped/cyclic) in which it is recognized” value is reported as “recognized in linear form”. In assay [2], the “Binding of Control Serum Blood-Bank to Looped peptides” value amounted to 0.2, the “Binding of Control serum Blood-bank to linear peptides” value is 0.9, the “Binding of Control serum LUMC to linear peptides” value is 0.8 and the “Binding of Control serum LUMC to looped peptides” value is recorded as 0.3. In addition, in assay [3], the “Binding of a rabbit serum to linear peptides” value is 0.3 and the “Binding of a rabbit serum to looped peptides” value is given as 0.3.
As for AFLAVFQSATKIIAL, in assay [1], the “Binding of serum 1a to linear peptides of protein X1 of SARS-CoV Urbani” value turned out to be 0.7, the “Binding of serum 1a to looped/cyclic peptide (PEPSCAN-ELISA)” value was 0.5, the “Binding of serum 1b to linear peptides of protein X1 of SARS-CoV Urbani” value came out at 0.4 and the “Binding of serum 1b to looped/cyclic peptide (PEPSCAN-ELISA)” value is listed as 0.4. Further, in assay [1], the “Binding of serum 2 to linear peptides of protein X1 of SARS-CoV Urbani” value stood at 0.5, the “Binding of serum 2 to looped/cyclic peptide (PEPSCAN-ELISA)” value was 0.5, the “Binding of serum 6 to linear peptides of protein X1 of SARS-CoV Urbani” value was 0.4 and the “Binding of serum 6 to looped/cyclic peptide (PEPSCAN-ELISA)” value is reported as 1.3. In addition, in assay [1], the “Binding of serum 37 to linear peptides of protein X1 of SARS-CoV Urbani” value stood at 0.6, the “Binding of serum 37 to looped/cyclic peptide (PEPSCAN-ELISA)” value was 0.6, the “Binding of serum 62 to linear peptides of protein X1 of SARS-CoV Urbani” value worked out at 0.5 and the “Binding of serum 62 to looped/cyclic peptide (PEPSCAN-ELISA)” value was 0.6. In addition, in assay [1], the “Binding of serum London to linear peptides of protein X1 of SARS-CoV Urbani” value is given as 0.2, the “Binding of serum London to looped/cyclic peptide (PEPSCAN-ELISA)” value was found to be 1.6, the “Binding of serum SARS-green to linear peptides of protein X1 of SARS-CoV Urbani” value worked out at 0.3 and the “Binding of serum SARS-green to looped/cyclic peptide (PEPSCAN-ELISA)” value was found to be 0.3. In assay [1], the “Binding of serum SARS-yellow to linear peptides of protein X1 of SARS-CoV Urbani” value is 0.3 and the “Binding of serum SARS-yellow to looped/cyclic peptide (PEPSCAN-ELISA)” value was 0.6. For the same sequence, in assay [2], the “Binding of Control Serum Blood-Bank to Looped peptides” value is recorded as 0.7, the “Binding of Control serum Blood-bank to linear peptides” value was 0.5, the “Binding of Control serum LUMC to linear peptides” value is recorded as 0.5 and the “Binding of Control serum LUMC to looped peptides” value is reported as 0.6. In assay [3], the “Binding of a rabbit serum to linear peptides” value is on record as 0.2 and the “Binding of a rabbit serum to looped peptides” value turned out to be 0.8.
